This note sets out measurements from ChEMBL document CHEMBL3507680, “University of Dundee, Gates Library screen for HepG2 cell viability”.

The nature of this series: Human HepG2 cell viability assay in 384 well format. The format is toxicity, cell-based. Details: dose 125 nL, time 70.5 hour; cytotoxicity at 70.5 h: concentration not given beside the values. Particulars: HepG2 cells, read-out: Inhibition.
In the case of `CC(=O)N1CCc2nc(N3CCCC3)nc(C)c2C1`, the cytotoxicity at 70.5 h was -0.643%.
The result for `CC(C)n1cc(C(=O)NC2CCS(=O)(=O)C2)c2ccccc2c1=O` (configuration not stated) reads -14.3%; that for `CC1CCC(N2CCC(NS(=O)(=O)CCOC(C)C)CC2)CC1` (configuration not stated), 14.8%.
Turning to `COCCN(Cc1ccc(F)cc1Cl)C(=O)c1ccc(=O)[nH]n1`, the cytotoxicity at 70.5 h is -3.15%.
With `CC(=O)Nc1nc(CN2CCCCC2Cn2cncn2)cs1` (configuration not stated) the figure was 0.302%; with `CCOCC(=O)N1CSCC1C(=O)N(C)Cc1ccco1` (configuration not stated), 15.7%; with `Cc1cccc2cc(CN3CCC(O)(CN4CCCC4)CC3)c(=O)[nH]c12`, -0.171%.
With `c1ccc(CN2C[C@@H]3CCCO[C@@H]3[C@H](Nc3ccccn3)C2)nc1` the figure was -7.21%; with `COCC1CN(C(=O)Cc2ccccn2)Cc2ncnn2C1` (configuration not stated), 16.8%.
For `COCc1ccccc1NC(=O)NC(C)c1ccc(C)o1` (configuration not stated), the cytotoxicity at 70.5 h is -3.14%.
Turning to `CCn1cc(N)c(C(=O)NCc2cnn(C)c2)n1`, the cytotoxicity at 70.5 h was -7.78%.
As to `CCOc1ccc(C(=O)N2CCCC(n3nc(C)nc3C)C2)cc1` (configuration not stated), the cytotoxicity at 70.5 h is 1.39%.
With `CC(C)CN1C[C@H]2CCN(C(=O)c3ccccn3)CC[C@H]2S1(=O)=O` the figure was -4.38%; with `Cc1nnc(SCc2ccccn2)s1`, 1.03%; with `Cc1ccc(CNC(CN2CCN(C)CC2)c2ccccc2)cc1` (configuration not stated), 3.21%.
As for `O=C(C1CCC2(CCN(c3nncs3)CC2)C1)N1CCCC1` (configuration not stated), the cytotoxicity at 70.5 h came to 9.17%.
The result for `Cc1cccc2c1CCN(c1cc(N3CCCC3CO)ncn1)C2` (configuration not stated) reads -10.5%.
The result for `Cc1cc(N2CCC(Cc3ccncc3)C2)ncn1` (configuration not stated) reads -3.38%.
The result for `CC(C)C(NC(=O)c1ccc(N2CCOCC2)nc1)c1cccs1` (configuration not stated) reads -9.4%.
As for `O=C(NCC1CC1)C1=NOC2(CCN(S(=O)(=O)Cc3ccccc3)C2)C1` (configuration not stated), the cytotoxicity at 70.5 h was -5.14%.
With `CCn1ccc(-c2nnc(SCC(=O)NCC(C)C)n2CC)n1` the figure was -10.3%; with `c1cn(-c2cncc(C3CCNCC3)n2)cn1`, -6.9%.
With `COCCN1CC(C(=O)N(C)Cc2csc(C)n2)CC1=O` (configuration not stated) the figure was 9.18%; with `CN(C(=O)c1ccco1)C1CCC(NC(=O)OC(C)(C)C)CC1` (configuration not stated), -6.4%; with `CC1CCCCN1C(=O)CCc1nnc(-c2ccccc2)o1` (configuration not stated), -1.68%.
The result for `O=C(NCc1cc[nH]n1)NC1CCCN(c2ncccn2)C1` (configuration not stated) reads -6.39%.
Take `O=S(=O)(NCCN1CCOCC1)c1cncc(Cl)c1`: the cytotoxicity at 70.5 h is 4.99%.
The result for `Cc1ccc(C(=O)N2CCC3(CC2)CC(c2ccccc2)C(=O)N3)o1` (configuration not stated) reads -5.53%; that for `CC(C)C(C(=O)NC1CC1)n1cnc2cc(F)c(F)cc21` (configuration not stated), -0.654%; that for `CN(C)Cc1ccc(C2CCCCN2C(=O)c2cccnn2)cc1` (configuration not stated), 2.83%.
With `c1cnn(CC2CCCN2Cc2ccc(-n3cccn3)cc2)c1` (configuration not stated) the figure was -8.68%.
With `Cc1cnc(C2(C)CCN(Cc3csc(C)n3)CC2)s1` the figure was -4.14%; with `O=C(Cn1ccc(=O)[nH]c1=O)NCc1cccnc1OCC(F)(F)F`, -10.1%.
Consider `N#CCCCS(=O)(=O)NC1(c2ccc(F)cc2)CC1`, for which the cytotoxicity at 70.5 h is -8.06%.
With `c1ccc(OCc2n[nH]c3c2CN(Cc2cccs2)C3)nc1`, the cytotoxicity at 70.5 h was -0.121%.
The result for `O=S1(=O)[C@@H](c2ccccc2)[C@H](CO)CN1c1ccccc1` reads -4.62%; that for `O=C(c1ccco1)N1C(CO)[C@]2(O)CC[C@H]1CC2` (some centres not stated), -3.21%.
The result for `CCOCCCC(=O)Nc1c(-c2ccc(F)cc2)ncn1C` reads 0.124%.
With `O=C(Nc1cccnc1-n1cncn1)C1CCC1` the figure was -22.6%; with `Cc1ccc(C(=O)N2Cc3ccccc3C2)cc1N1CCNC1=O`, -6.89%; with `Cc1cc(C)c2nc(C)cc(C(=O)N3CC(O)CO3)c2c1` (configuration not stated), 17.6%.
On to `CN(Cc1noc2c1CCCC2)C(=O)Cn1c(=O)cnc2ccccc21`, for which the cytotoxicity at 70.5 h is -12.8%.
With `Cc1ccc(C(=O)N2CCOC(c3nc(-c4ncccn4)no3)C2)cc1` (configuration not stated) the figure was -2.85%; with `CN(Cc1ncnn1C)C1CCN(c2sccc2C#N)C1=O` (configuration not stated), -1.7%; with `CN1CC2(CCN(C(=O)c3ccc(-n4cccn4)cc3Cl)C2)OC1=O` (configuration not stated), -2.7%.
With `CC(=O)N1CCCC(Cc2cnc(-n3ccnc3)cn2)C1` (configuration not stated) the figure was -5.34%; with `CCC(C)(NCC(=O)OC)c1nccs1` (configuration not stated), -2.64%.
With `Cn1ccnc1CN1CCCN(C(=O)c2ccc3c(c2)COC3)CC1`, the cytotoxicity at 70.5 h came out at 5.68%.
The result for `Cc1ccc(CNCc2c(C(C)C)nn(C)c2N2CCOCC2)s1` reads -19.6%.
With `Cc1cc(NC(=O)CNC(C)(C)c2ccc3c(c2)OCO3)on1` the figure was -2.77%; with `CN(CC(=O)Nc1cc(CC2CCCCC2)n[nH]1)S(C)(=O)=O`, -4.16%.
The result for `Cc1cc(-c2n[nH]c3c2CN(S(=O)(=O)c2ccsc2)CC3)c(C)o1` reads -9.27%; that for `COCCc1noc(CNC(=O)C2CC(=O)N(C(C)(C)C)C2)n1` (configuration not stated), -7.37%.
Regarding `Cc1nc(CN2CCCC(CCc3ccccc3F)C2)c[nH]1` (configuration not stated), the cytotoxicity at 70.5 h turned out to be 1.04%.
In the case of `Cc1cc(C)c2nc(C)cc(C(=O)NCc3csc(N(C)C)n3)c2c1`, the cytotoxicity at 70.5 h amounted to 27.3%.
As for `Cc1ccc([C@@H]2CN(S(=O)(=O)Cc3ccccc3)C[C@H]2N(C)C)cc1`, the cytotoxicity at 70.5 h turned out to be 1.88%.
With `CC(NCC(=O)N1CCc2sccc2C1)c1ccccc1F` (configuration not stated) the figure was -15.8%.
In the case of `c1ccc(CO[C@H]2CO[C@@]3(CCCN(Cc4ccncc4)C3)C2)nc1`, the cytotoxicity at 70.5 h is -16.2%.
With `CC(=O)NCc1nc(Cc2cccc(Cl)c2)nn1C1CCN(C)CC1` the figure was 6.7%.
With `Cc1cc(N(C)C)nc(C2(C)CCCN2C(=O)c2ccn(C)n2)n1` (configuration not stated) the figure was -9.18%; with `CCc1cc(=O)[nH]c(SCc2ccccn2)n1`, -5.73%.
With `Cc1nc(Nc2ncccn2)cc(C2CCCN2C2CCOCC2)n1` (configuration not stated) the figure was 1.98%.
`CC(C)c1n[nH]c(C2CN(C(=O)c3csnn3)CCO2)n1` (configuration not stated): the cytotoxicity at 70.5 h is -3.07%.
With `CC1CN(S(=O)(=O)c2ccc(F)cc2F)c2cccnc2O1` (configuration not stated) the figure was -6.28%; with `CC(C)(C)C(NC(=O)CCS(C)(=O)=O)c1ccc(F)cc1F` (configuration not stated), -6.93%; with `O=C(O)c1cc(-c2cccs2)nc2c(Cl)cnn12`, -5.65%.
With `O=C(c1cc[nH]n1)N1CCN(C(c2ccccc2)C(F)(F)F)CC1` (configuration not stated) the figure was -8.27%; with `O=C(NCc1cccs1)C1CNCC12CCOCC2` (configuration not stated), 0.759%; with `COc1ccccc1CC(=O)N1CCN(Cc2ccco2)C[C@@H]1C`, -2.18%.
With `Cc1ccc(S(N)(=O)=O)cc1C(=O)NCC1Cc2ccccc2O1` (configuration not stated) the figure was -3.82%; with `COCCN(Cc1sccc1C)C(=O)COc1cccnc1`, -4.34%; with `Cc1nc(N2CCOCC2)ncc1-c1cc(O)nc(N2CCCC2)n1`, -2.77%.
